Where a name gives a salt, the structure may show the parent alone.
Tests used:
serotonin 1A receptor = biological target: T1, serotonin 1A receptor (Rattus norvegicus, UniProt P19327); assay: Binding test on [3H] 8-hydroxy-dipropylaminotetralin, hippocampus receptor fraction; set-up: species or system SD rats; settings: rat hippocampus receptor fraction, 0.5 nM [3H] 8-OH-DPAT, room temperature 30 min; read-out: 5HT1
T1 construct: To the receptor fraction of the hippocampus were added a test compound and 0.5 nM of [^3H]; 8-hydroxy-dipropylaminotetralin; from tissue; host or cells: rat hippocampus membrane fraction
T1 sequence (P19327 1-422): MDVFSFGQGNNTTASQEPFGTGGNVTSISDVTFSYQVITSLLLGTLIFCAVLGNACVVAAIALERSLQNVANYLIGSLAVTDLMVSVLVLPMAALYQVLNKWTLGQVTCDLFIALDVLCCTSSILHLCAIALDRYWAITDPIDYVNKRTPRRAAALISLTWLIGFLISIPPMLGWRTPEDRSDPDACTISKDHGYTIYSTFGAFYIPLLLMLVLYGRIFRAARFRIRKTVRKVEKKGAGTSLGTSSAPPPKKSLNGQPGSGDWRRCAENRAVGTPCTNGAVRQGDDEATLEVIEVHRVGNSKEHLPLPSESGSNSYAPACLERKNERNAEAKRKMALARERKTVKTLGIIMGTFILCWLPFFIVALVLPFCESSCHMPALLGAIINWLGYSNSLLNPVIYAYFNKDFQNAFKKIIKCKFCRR

serotonin 2 receptor = biological target: T2, serotonin 2 receptor (Rattus norvegicus, UniProt P14842); assay: Binding test on [3H] ketanserin, cerebral cortex receptor fraction; set-up: species or system SD rats; settings: 0.3 nM [3H] ketanserin, 37° C. 15 min, read-out: 5HT2
T2 construct: To the receptor fraction of the cerebral cortex were added a test compound and 0.3 nM of [^3H] ketanserin; from tissue; host or cells: rat cerebral cortex membrane fraction
T2 sequence (P14842 whole entry): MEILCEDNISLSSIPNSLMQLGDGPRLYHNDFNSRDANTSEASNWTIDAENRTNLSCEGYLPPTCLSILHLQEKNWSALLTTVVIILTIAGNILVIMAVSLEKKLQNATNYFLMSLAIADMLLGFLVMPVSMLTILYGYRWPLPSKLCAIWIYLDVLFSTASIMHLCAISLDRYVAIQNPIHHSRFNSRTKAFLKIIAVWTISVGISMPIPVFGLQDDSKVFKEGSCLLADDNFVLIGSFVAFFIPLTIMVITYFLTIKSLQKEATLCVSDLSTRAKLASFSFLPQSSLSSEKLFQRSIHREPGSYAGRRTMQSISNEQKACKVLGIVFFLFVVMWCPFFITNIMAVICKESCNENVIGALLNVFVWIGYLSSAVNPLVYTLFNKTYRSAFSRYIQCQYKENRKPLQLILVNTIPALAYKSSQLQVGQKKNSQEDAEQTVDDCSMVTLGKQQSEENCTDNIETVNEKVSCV

| SMILES | Ki (serotonin 1A receptor) [nM] | Ki (serotonin 2 receptor) [nM] |
| --- | --- | --- |
| CCN1CCN(c2nc(C#Cc3cncc(CCCOC)c3)cc3ccccc23)CC1 [Example 186, 1-(1-Ethylpiperazin-4-Yl)-3-[3-(3-Methoxypropyl)-5-Pyridyl]Ethynylisoquinoline] | 2.83 | 4.5 |
| CCN1CCN(c2nc(C#Cc3ncccc3OCCO)cc3ccccc23)CC1 [Example 188, 1-(1-Ethylpiperazin-4-Yl)-3-[3-(2-Hydroxyethoxy)-2-Pyridyl]Ethynylisoquinoline] | 4.47 | 107 |
| CCN1CCN(c2nc(/C=C/c3ccccc3)cc3ccccc23)CC1 [Example 189, 1-(1-Ethylpiperazin-4-Yl)-3-(Trans-2-Phenylethenyl)Isoquinoline Dihydrochloride] | 37.2 | 0.44 |
| CCN1CCN(c2nc(/C=C/c3ccc(OC)cc3)cc3ccccc23)CC1 [Example 190, 1-(1-Ethylpiperazin-4-Yl)-3-[Trans-2-(4-Methoxyphenyl)Ethenyl]Isoquinoline Dihydrochloride] | 35 | 3.85 |
| CCN1CCN(c2nc(/C=C\c3ccc(OC)cc3)cc3ccccc23)CC1 [Example 191, 1-(1-Ethylpiperazin-4-Yl)-3-[Cis-2-(4-Methoxyphenyl)Ethenyl]Isoquinoline Oxalate] | 13 | 0.93 |
| CCN1CCN(c2nc(C(C)=Cc3ccccc3)cc3ccccc23)CC1 [Example 192, 1-(1-Ethylpiperazin-4-Yl)-3-(Cis-1-Methyl-2-Phenylethenyl) Isoquinoline Oxalate] | 66.7 | 7.85 |
| CCN1CCN(c2nc(/C=C/c3ccccc3OCCO)cc3ccccc23)CC1 [Example 194, 1-(1-Ethylpiperazin-4-Yl)-3-[trans-2-(2-Hydroxyethoxyphenyl)Ethenyl]Isoquinoline Oxalate] | 11.2 | 33.7 |
| CCN1CCN(c2nc(/C=C/c3ccccc3OC)cc3ccccc23)CC1 [Example 195, 1-(1-Ethylpiperazin-4-Yl)-3-[Trans-2-(2-Methoxyphenyl)Ethenyl]Isoquinoline Oxalate] | 23 | 37.2 |
| CCN1CCN(c2nc(/C=C(\C)c3ccccc3)cc3ccccc23)CC1 [Example 196, 1-(1-Ethylpiperazin-4-Yl)-3-(Trans-2-Methyl-2-Phenylethen-1-Yl)Isoquinoline Oxalate] | 66.7 | 6.44 |
| CCN1CCN(c2nc(/C=C/c3ccccc3F)cc3ccccc23)CC1 [Example 197, 1-(1-Ethylpiperazin-4-Yl)-3-[Trans-2-(2-Fluorophenyl)Ethenyl]isoquinoline Oxalate] | 70.7 | 4.26 |
| CCN1CCN(c2nc(/C=C/c3ccc(OCCO)cc3)cc3ccccc23)CC1 [Example 198, 1-(1-Ethylpiperazin-4-Yl)-3-[(E)-4-(2-Hydroxyethoxy)Styryl]Isoquinoline Oxalate] | 45.5 | 9.08 |
| CCN1CCN(c2nc(/C=C/c3cccc(OCCO)c3)cc3ccccc23)CC1 [Example 199, 1-(1-Ethylpiperazin-4-Yl)-3-(Trans-2-(3-(2-Hydroxyethoxy)Phenyl]Ethenyl]isoquinoline Oxalate] | 3.27 | 3.8 |
| CCN1CCN(c2nc(/C=C/c3ccc(N4CCOCC4)nc3)cc3ccccc23)CC1 [Example 200, 3-[(E)-2-[2-(4-Morpholinyl)Pyridin-5-Yl]Ethenyl]-1-(4-Ethylpiperazin-1-Yl)Isoquinoline Hydrochloride] | 77.3 | 7.33 |
| CCN1CCN(c2nc(/C=C/c3ccc(S(C)(=O)=O)cc3)cc3ccccc23)CC1 [Example 201, 3-[(E)-2-(4-Methylsulfonylphenyl)Ethenyl]-1-(4-Ethylpiperazin-1-Yl)Isoquinoline Hydrochloride] | 35.9 | 2.96 |
| CCN1CCN(c2nc(/C=C/c3ccc(CS(C)(=O)=O)cc3)cc3ccccc23)CC1 [Example 203, 3-[(E)-2-(4-Methylsulfonylmethylphenyl)Ethenyl]-1-(4-Ethylpiperazin-1-Yl)Isoquinoline Oxalate] | 5.5 | 0.52 |
| CCN1CCN(c2nc(/C=C/c3cccc(N4CCOCC4)c3)cc3ccccc23)CC1 [Example 204, 3-{(E)-2-[3-(4-Morpholinyl)Phenyl]Ethenyl}-1-(4-Ethylpiperazin-1-Yl)Isoquinoline Oxalate] | 25.5 | 18.5 |
| CCN1CCN(c2nc(/C=C/c3ccc(N4CCOCC4)cc3)cc3ccccc23)CC1 [Example 205, 3-{(E)-2-[4-(4-Morpholinyl)Phenyl]Ethenyl}-1-(4-Ethylpiperazin-1-Yl)Isoquinoline Oxalate] | 33.1 | 0.98 |

| SMILES | Ki (serotonin 1A receptor) [nM] | Ki (serotonin 2 receptor) [nM] |
| --- | --- | --- |
| CCN1CCN(c2nc(/C=C(\C)c3ccc(N4CCOCC4)cc3)cc3ccccc23)CC1 [Example 206, 3-{(E)-2-Methyl-2-[4-(4-Morpholinyl)Phenyl]Ethenyl}-1-(4-Ethylpiperazin-1-Yl)Isoquinoline Oxalate] | 77.1 | 2.59 |
| CCN1CCN(c2nc(/C=C(\C)c3cccc(N4CCOCC4)c3)cc3ccccc23)CC1 [Example 207, 3-{(E)-2-Methyl-2-[3-(4-Morpholinyl)Phenyl]Ethenyl}-1-(4-Ethylpiperazin-1-Yl)Isoquinoline Oxalate] | 22.2 | 17.9 |
| CCN1CCN(c2nc(/C=C/c3ccccn3)cc3ccccc23)CC1 [Example 209, 1-(1-Ethylpiperazin-4-Yl)-3-[Trans-2-(2-Pyridyl)Ethenyl]Isoquinoline Trihydrochloride] | 3.28 | 2.35 |
| CCN1CCN(c2nc(/C=C/c3ccncc3)cc3ccccc23)CC1 [Example 210, 1-(1-Ethylpiperazin-4-Yl)-3-[Trans-2-(4-Pyridyl)Ethenyl]Isoquinoline] | 6.56 | 3.95 |
| CCN1CCN(c2nc(/C=C/Cc3ccccc3OC)cc3ccccc23)CC1 [Example 211] | 5.17 | 40.2 |
| CCN1CCN(c2nc(/C=C/c3ccc(N4CCOCC4)nn3)cc3ccccc23)CC1 [Example 214, 3-{(E)-2-[3-(4-Morpholinyl)Pyridazin-6-Yl]Ethenyl}-1-(4-Ethylpiperazin-1-Yl)Isoquinoline Oxalate] | 15.6 | 7.59 |
| CCN1CCN(c2nc(/C=C/c3cc(N4CCOCC4)ncn3)cc3ccccc23)CC1 [Example 215, 3{(E)-2-[4-(4-morpholinyl)pyrimidin-6-yl]ethenyl}-1-(4-ethylpiperazin-1-yl)isoquinoline oxalate] | 51.9 | 20.9 |
| CCN1CCN(c2nc(/C=C/c3cncc(N4CCOCC4)n3)cc3ccccc23)CC1 [Example 216, 3-{(E)-2-[2-(4-morpholinyl)pyrazin-6-yl]ethenyl}-1-(4-ethylpiperazin-1-yl)isoquinoline oxalate] | 16.6 | 15.5 |
| CCN1CCN(c2nc(CNc3ccc(OC)cc3)cc3ccccc23)CC1 [Example 219, 1-(1-ethylpiperazin-4-yl)-3-(4-methoxyanilinomethyl)isoquinoline oxalate] | 2.99 | 5.92 |
| CCN1CCN(c2nc(-c3ccc(OC)cc3)cc3cccc(F)c23)CC1 [Example 233, 1-(1-ethylpiperazin-4-yl)-8-fluoro-3-(4-methoxyphenyl)isoquinoline dihydrochloride] | 200 | 1.97 |
| CCN1CCN(c2nc(-c3ccc(OCCO)cc3)cc3cccc(F)c23)CC1 [Example 234, 1-(1-ethylpiperazin-4-yl)-8-fluoro-3-[4-(2-hydroxyethoxy)phenyl]isoquinoline dihydrochloride] | 129 | 1.11 |
| CCS(=O)(=O)NCc1ccc(-c2cc3ccccc3c(N3CCN(CCO)CC3)n2)cc1 [Example 243, 3-(4-ethylsulfonylaminomethylphenyl)-1-[4-(2-hydroxyethyl)piperazin-1-yl]isoquinoline Hydrochloride] | 13 | 6.7 |
| CCN1CCN(c2nc(-c3ccc(OC)cc3)cc3cccnc23)CC1 [Example 244, 8-(4-ethylpiperazin-1-yl)-6-(4-methoxyphenyl)pyrido[2,3-c]pyridine Hydrochloride] | 27.1 | 78.6 |
| CCN1CCN(c2nc(-c3ccc(OCCO)cc3)cc3cccnc23)CC1 [Example 245, 8-(1-ethylpiperazin-4-yl)-6-[4-(2-hydroxyethoxy)phenyl]-1,7-naphthyridine Dihydrochloride] | 109 | 72.2 |
| CCN1CCN(c2nc(-c3ccc(CCCO)cc3)cc3cccnc23)CC1 [Example 247, 8-(1-ethylpiperazin-4-yl)-6-[4-(3-hydroxypropyl)phenyl]-1,7-naphthyridine Dihydrochloride] | 25.1 | 28.7 |
| CCN1CCN(c2nc(-c3ccc(CCC(C)O)cc3)cc3cccnc23)CC1 (centres unmarked) [Example 248, 8-(1-ethylpiperazin-4-yl)-6-[4-(3-hydroxybutyl)phenyl]-1,7-naphthyridine Dihydrochloride] | 43 | 31.6 |
| CCN1CCN(c2nc(-c3ccc(C(F)CCO)cc3)cc3cccnc23)CC1 (centres unmarked) [Example 249, 8-(1-ethylpiperazin-4-yl)-6-[4-(3-hydroxy-1-fluoropropyl)phenyl]-1,7-naphthyridine Dihydrochloride] | 38 | 28.1 |

From patent publication US6875761B2 (Eisai Co., Ltd., priority 1997, dated 2005)
